Measurements: patent US20250213701A1, “MEDICAMENT FOR TREATING HUMAN TUMOR BASED ON ERF3A-TARGETING PROTEOLYSIS MECHANISM” (SUZHOU DEGEN BIO-MEDICAL CO., LTD., priority 2022, published 2025)
pIC50: −log10 of the molar value.

Legend:
Type in all cases: cell-based, human
VCaP cells = test: Anti-proliferative toxicity against prostate cancer cell line Vcap (CCK8); settings: 3 days; for pIC50: Homo sapiens, 72 h, CCK8
Summary of the method: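 VCaP cells (DMEM, 10% FBS) seeded 20000 cells/well, cultured 72 h, then exposed in triplicate to compound at final well concentrations of 0.00001–0.16 μM for 3 days at 37 °C, 5% CO2. Viability by CCK8, 1–4 h at 37 °C, absorbance at 450 nm.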

22Rv1 cells = test: Anti-proliferative toxicity against prostate cancer cell line 22Rv1 (CCK8); settings: 3 days; for pIC50: Homo sapiens, 72 h, CCK8
Summary of the method: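 22Rv1 cells pre-cultured for 48 h, then exposed to compounds at 0.00001-1.0 μM final, in triplicate, for 3 days. Viability read by CCK8 absorbance at 450 nm after 1-4 h at 37 °C.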

PC-3 cells = test: Anti-proliferative toxicity against prostate cancer cell line PC-3 (CCK8); settings: Homo sapiens, 72 h, 3 days
Summary of the method: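 PC-3 cells (4000/well, pre-cultured 24 h) exposed in triplicate to compound at final 0.00001-1.0 μM for 3 days at 37 °C, 5% CO2. Viability read by CCK8, 1-4 h at 37 °C, absorbance at 450 nm.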

Compound	Anti-proliferative toxicity data in VCaP cells (VCaP cells; 0.00001 μM)	Anti-proliferative toxicity data in VCaP cells (VCaP cells; 0.00005 μM)	Anti-proliferative toxicity data in VCaP cells (VCaP cells; 0.00010 μM)	Anti-proliferative toxicity data in VCaP cells (VCaP cells; 0.00030 μM)	Anti-proliferative toxicity data in VCaP cells (VCaP cells; 0.00100 μM)	Anti-proliferative toxicity data in VCaP cells (VCaP cells; 0.00300 μM)	Anti-proliferative toxicity data in VCaP cells (VCaP cells; 0.00600 μM)	Anti-proliferative toxicity data in VCaP cells (VCaP cells; 0.03200 μM)	Anti-proliferative toxicity data in VCaP cells (VCaP cells; 0.16000 μM)	pIC50 (VCaP cells)	Anti-proliferative toxicity data in 22Rv1 cells (22Rv1 cells; 0.00001 μM)	Anti-proliferative toxicity data in 22Rv1 cells (22Rv1 cells; 0.00006 μM)	Anti-proliferative toxicity data in 22Rv1 cells (22Rv1 cells; 0.00032 μM)	Anti-proliferative toxicity data in 22Rv1 cells (22Rv1 cells; 0.00160 μM)	Anti-proliferative toxicity data in 22Rv1 cells (22Rv1 cells; 0.00800 μM)	Anti-proliferative toxicity data in 22Rv1 cells (22Rv1 cells; 0.04000 μM)	Anti-proliferative toxicity data in 22Rv1 cells (22Rv1 cells; 0.20000 μM)	Anti-proliferative toxicity data in 22Rv1 cells (22Rv1 cells; 1.00000 μM)	pIC50 (22Rv1 cells)	pIC50 (PC-3 cells)
C[C@]12C=CC(=O)N[C@@H]1CC[C@@H]1[C@@H]2CC[C@]2(C)[C@@H](C(=O)Nc3cccc(N[C@@H]4CCC[C@@H](Nc5cccc6c5C(=O)N(C5CCC(=O)NC5=O)C6=O)C4)c3)CC[C@@H]12 (stereo partly drawn) [C59, N-(3-(N—(N-(4-(2-(3-(2,6-dioxopiperidine))-isoindole-1,3-dione))-1R,3R-cyclohexanediamine))phenyl)-3-oxo-4-aza-5α-androst-1-ene-17β-carboxamide]	0.6%	62.5%	78.6%	88.3%	92.7%	93.5%	94.1%	94.6%	94.6%	≥ 10.00	8.3%	41.3%	79.6%	80.7%	81.1%	81.1%	81.9%	82.3%	8.00 to 10.00	8.00 to 10.00
C[C@]12C=CC(=O)N[C@@H]1CC[C@@H]1[C@@H]2CC[C@]2(C)[C@@H](C(=O)Nc3cccc(N[C@@H]4CCC[C@@H](Nc5cccc6c5C(=O)N([C@H]5CCC(=O)NC5=O)C6=O)C4)c3)CC[C@@H]12 [C63, N-(3-(N—(N-(4-(2-(3S-(2,6-dioxopiperidine))-isoindole-1,3-dione))-1R,3R-cyclohexanediamine))phenyl)-3-oxo-4-aza-5α-androst-1-ene-17β-carboxamide]	25.2%	75.7%	80.2%	89.2%	93.1%	94.0%	94.3%	94.5%	94.8%	≥ 10.00	23.5%	62.4%	76.5%	87.8%	86.5%	88.0%	86.9%	84.5%	8.00 to 10.00	8.00 to 10.00
